Laboratory results published in ChEMBL document CHEMBL2331439 (J Med Chem, 2013).

Columns and labels:
[1] = target: MAP kinase-activated protein kinase 2 (Homo sapiens, UniProt P49137); test: Inhibition of recombinant MAPKAPK2 (unknown origin) by FRET-based Z'-LYTE assay
[2] = target: Vascular endothelial growth factor receptor 2 (Homo sapiens, UniProt P35968); test: Inhibition of recombinant KDR (unknown origin) by FRET-based Z'-LYTE assay
[3] = target: Mitogen-activated protein kinase 14 (Homo sapiens, UniProt Q16539); test: Inhibition of recombinant MAPK14 (unknown origin) by FRET-based Z'-LYTE assay
[4] = target: T1, Serine/threonine-protein kinase Nek1 (Homo sapiens, UniProt Q96PY6); test: Inhibition of recombinant NEK1 (unknown origin) by FRET-based Z'-LYTE assay
T1 sequence (Q96PY6 whole entry): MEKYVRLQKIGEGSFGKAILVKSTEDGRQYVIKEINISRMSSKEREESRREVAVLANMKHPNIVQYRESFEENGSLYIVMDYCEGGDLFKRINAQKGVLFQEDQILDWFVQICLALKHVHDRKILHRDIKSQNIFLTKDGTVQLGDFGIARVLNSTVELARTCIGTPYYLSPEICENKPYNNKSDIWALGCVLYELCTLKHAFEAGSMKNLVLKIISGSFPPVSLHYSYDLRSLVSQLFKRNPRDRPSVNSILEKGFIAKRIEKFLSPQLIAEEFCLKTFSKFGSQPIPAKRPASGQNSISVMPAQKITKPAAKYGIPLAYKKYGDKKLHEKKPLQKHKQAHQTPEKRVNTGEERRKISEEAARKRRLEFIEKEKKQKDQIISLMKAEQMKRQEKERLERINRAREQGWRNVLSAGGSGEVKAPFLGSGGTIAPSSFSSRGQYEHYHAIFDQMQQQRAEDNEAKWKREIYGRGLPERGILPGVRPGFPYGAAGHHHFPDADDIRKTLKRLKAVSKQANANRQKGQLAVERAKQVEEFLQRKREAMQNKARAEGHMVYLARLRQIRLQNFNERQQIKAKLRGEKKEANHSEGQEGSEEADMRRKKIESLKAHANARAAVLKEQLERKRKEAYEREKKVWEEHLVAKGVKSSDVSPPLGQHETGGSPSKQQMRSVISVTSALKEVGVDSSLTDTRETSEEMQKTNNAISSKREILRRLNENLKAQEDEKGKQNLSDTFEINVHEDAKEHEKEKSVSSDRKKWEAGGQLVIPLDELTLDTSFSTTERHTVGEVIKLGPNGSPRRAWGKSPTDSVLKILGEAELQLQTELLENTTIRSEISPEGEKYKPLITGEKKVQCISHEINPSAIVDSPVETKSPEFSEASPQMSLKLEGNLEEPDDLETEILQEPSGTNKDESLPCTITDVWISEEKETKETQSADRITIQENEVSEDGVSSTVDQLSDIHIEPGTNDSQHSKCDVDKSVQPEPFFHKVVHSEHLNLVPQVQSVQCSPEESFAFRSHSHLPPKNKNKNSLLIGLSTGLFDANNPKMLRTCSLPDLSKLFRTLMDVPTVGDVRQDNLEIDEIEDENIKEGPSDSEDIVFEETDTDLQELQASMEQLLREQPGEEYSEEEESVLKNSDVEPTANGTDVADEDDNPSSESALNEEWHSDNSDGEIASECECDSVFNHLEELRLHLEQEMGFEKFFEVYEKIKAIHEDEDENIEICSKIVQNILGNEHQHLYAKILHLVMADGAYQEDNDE

[5] = target: Dual specificity mitogen-activated protein kinase kinase 1 (Homo sapiens, UniProt Q02750); test: Inhibition of recombinant MEK1 (unknown origin) by cascade reaction assay
[6] = target: Mitogen-activated protein kinase 1 (Homo sapiens, UniProt P28482); test: Inhibition of recombinant ERK2 (unknown origin) by FRET-based Z'-LYTE assay
[7] = target: RAF proto-oncogene serine/threonine-protein kinase (Homo sapiens, UniProt P04049); test: Inhibition of recombinant RAF1 (unknown origin) by cascade reaction assay
[8] = target: AMP-activated protein kinase (AMPK) alpha-1/beta-1/gamma-1 (Homo sapiens, UniProt P54619+Q13131+Q9Y478); test: Inhibition of recombinant AMPK A1/B1/G1 (unknown origin) by FRET-based Z'-LYTE assay; type: protein-complex assay
[9] = target: Ribosomal protein S6 kinase beta-1 (Homo sapiens, UniProt P23443); test: Inhibition of recombinant RPS6K1 (unknown origin) by FRET-based Z'-LYTE assay
[10] = target: RAC-beta serine/threonine-protein kinase (Homo sapiens, UniProt P31751); test: Inhibition of recombinant AKT2 (unknown origin) by FRET-based Z'-LYTE assay
[11] = target: T2, Inhibitor of nuclear factor kappa-B kinase subunit beta (Homo sapiens, UniProt O14920); test: Inhibition of recombinant IKBKB (unknown origin) by FRET-based Z'-LYTE assay
T2 sequence (O14920 whole entry): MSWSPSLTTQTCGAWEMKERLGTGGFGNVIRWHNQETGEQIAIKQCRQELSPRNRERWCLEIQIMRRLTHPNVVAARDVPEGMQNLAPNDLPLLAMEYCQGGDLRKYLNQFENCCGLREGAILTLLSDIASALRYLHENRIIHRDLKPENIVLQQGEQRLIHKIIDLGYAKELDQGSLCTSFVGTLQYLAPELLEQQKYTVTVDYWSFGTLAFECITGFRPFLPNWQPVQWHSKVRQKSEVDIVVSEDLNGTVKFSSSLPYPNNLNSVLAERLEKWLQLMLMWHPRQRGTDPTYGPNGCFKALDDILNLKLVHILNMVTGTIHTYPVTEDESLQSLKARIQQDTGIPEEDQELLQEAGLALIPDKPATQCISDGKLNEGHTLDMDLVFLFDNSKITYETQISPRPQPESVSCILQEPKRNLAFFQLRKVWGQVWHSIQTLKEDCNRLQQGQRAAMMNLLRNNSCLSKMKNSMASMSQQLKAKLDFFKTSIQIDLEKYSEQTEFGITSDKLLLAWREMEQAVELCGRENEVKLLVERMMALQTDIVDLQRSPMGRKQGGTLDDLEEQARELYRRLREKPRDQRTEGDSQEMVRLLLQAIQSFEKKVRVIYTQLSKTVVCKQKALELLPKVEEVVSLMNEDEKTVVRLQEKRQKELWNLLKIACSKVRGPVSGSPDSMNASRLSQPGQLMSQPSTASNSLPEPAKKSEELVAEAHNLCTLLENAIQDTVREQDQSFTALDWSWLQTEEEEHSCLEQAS

[12] = target: RAC-alpha serine/threonine-protein kinase (Homo sapiens, UniProt P31749); test: Inhibition of recombinant AKT1 (unknown origin) by FRET-based Z'-LYTE assay
Sequence of RAC-alpha serine/threonine-protein kinase (P31749 whole entry): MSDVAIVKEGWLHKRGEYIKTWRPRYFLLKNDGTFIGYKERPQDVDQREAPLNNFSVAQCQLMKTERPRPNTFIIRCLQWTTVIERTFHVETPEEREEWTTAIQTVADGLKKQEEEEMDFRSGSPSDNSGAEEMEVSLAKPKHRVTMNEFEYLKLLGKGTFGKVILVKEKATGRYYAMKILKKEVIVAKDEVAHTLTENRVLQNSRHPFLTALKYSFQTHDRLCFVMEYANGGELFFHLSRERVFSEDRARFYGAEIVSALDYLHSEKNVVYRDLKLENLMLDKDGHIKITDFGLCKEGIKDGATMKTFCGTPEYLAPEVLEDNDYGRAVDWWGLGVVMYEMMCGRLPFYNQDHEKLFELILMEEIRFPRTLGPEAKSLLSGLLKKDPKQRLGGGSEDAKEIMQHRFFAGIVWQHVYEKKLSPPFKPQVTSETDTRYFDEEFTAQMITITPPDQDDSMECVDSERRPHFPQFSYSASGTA

Sequence of Mitogen-activated protein kinase 14 (Q16539 whole entry): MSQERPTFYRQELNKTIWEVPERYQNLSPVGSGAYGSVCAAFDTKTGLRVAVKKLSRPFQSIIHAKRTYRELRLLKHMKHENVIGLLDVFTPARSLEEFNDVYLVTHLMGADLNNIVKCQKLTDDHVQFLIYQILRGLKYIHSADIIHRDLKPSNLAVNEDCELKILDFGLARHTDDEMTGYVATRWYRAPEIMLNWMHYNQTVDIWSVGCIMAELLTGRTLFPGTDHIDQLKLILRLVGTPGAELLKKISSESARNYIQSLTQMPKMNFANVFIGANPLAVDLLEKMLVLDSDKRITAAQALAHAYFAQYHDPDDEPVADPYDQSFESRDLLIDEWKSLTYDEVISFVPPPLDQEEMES
Sequence of RAC-beta serine/threonine-protein kinase (P31751 whole entry): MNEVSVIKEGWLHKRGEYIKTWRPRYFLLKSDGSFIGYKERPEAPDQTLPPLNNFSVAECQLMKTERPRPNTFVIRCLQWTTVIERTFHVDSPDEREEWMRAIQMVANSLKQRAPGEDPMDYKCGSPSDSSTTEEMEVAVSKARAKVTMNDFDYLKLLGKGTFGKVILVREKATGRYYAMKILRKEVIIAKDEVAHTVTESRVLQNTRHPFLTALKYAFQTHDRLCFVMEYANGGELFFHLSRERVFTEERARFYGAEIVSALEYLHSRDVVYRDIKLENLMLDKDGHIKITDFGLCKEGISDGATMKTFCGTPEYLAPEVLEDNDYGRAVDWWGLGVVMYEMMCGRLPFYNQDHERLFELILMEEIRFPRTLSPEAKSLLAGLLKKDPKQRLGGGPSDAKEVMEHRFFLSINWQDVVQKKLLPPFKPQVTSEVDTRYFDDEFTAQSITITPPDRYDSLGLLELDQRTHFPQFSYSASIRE
Sequence of Mitogen-activated protein kinase 1 (P28482 whole entry): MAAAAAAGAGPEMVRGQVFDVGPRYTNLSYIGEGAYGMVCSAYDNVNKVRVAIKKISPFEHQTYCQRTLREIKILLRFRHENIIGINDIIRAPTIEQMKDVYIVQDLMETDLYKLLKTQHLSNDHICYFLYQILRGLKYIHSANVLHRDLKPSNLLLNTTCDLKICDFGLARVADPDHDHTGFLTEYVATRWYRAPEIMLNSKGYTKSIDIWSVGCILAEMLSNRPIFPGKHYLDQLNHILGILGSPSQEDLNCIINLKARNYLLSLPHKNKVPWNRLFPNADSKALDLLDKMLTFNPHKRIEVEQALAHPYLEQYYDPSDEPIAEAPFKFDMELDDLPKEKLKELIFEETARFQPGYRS
Sequence of MAP kinase-activated protein kinase 2 (P49137 whole entry): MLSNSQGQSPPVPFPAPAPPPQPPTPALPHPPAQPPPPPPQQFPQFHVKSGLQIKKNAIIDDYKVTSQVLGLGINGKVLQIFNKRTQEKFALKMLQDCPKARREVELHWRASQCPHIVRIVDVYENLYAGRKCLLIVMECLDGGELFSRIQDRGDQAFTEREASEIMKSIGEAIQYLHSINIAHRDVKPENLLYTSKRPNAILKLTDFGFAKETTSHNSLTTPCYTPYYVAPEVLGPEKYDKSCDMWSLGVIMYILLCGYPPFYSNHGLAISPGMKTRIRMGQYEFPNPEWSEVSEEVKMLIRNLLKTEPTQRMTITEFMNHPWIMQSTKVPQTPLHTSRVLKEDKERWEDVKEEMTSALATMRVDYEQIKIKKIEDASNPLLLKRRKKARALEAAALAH
Sequence of Ribosomal protein S6 kinase beta-1 (P23443 whole entry): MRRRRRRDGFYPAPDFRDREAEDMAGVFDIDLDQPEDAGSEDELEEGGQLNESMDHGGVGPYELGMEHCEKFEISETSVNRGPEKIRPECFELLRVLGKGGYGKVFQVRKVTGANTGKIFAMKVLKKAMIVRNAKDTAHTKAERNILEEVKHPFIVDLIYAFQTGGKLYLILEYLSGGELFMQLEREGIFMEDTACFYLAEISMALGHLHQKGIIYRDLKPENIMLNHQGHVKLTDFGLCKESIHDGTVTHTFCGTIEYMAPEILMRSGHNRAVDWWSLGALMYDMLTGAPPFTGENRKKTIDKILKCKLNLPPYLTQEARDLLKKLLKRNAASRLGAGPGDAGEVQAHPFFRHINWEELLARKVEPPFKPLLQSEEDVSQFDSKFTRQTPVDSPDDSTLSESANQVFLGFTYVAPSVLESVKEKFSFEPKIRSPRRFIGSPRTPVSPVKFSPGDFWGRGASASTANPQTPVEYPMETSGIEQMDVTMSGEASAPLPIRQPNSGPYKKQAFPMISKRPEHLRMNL
Sequence of RAF proto-oncogene serine/threonine-protein kinase (P04049 whole entry): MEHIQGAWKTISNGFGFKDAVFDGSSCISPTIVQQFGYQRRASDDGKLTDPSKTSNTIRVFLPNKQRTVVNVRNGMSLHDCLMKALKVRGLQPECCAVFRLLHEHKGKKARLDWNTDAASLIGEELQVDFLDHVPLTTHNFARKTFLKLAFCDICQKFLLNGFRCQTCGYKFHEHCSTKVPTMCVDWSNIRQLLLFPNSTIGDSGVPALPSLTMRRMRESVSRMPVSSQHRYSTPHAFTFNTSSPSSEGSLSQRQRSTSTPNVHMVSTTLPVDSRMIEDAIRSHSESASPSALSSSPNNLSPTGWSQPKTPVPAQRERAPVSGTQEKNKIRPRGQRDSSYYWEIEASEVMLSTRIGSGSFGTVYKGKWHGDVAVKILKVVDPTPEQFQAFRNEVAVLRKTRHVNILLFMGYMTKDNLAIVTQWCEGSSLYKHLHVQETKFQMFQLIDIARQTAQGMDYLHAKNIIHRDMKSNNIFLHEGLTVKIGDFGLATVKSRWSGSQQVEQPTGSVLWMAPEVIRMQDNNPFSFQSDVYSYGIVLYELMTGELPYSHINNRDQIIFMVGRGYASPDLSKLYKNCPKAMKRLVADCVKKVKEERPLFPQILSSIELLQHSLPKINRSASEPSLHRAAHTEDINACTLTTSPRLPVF
Sequence of Vascular endothelial growth factor receptor 2 (P35968 whole entry): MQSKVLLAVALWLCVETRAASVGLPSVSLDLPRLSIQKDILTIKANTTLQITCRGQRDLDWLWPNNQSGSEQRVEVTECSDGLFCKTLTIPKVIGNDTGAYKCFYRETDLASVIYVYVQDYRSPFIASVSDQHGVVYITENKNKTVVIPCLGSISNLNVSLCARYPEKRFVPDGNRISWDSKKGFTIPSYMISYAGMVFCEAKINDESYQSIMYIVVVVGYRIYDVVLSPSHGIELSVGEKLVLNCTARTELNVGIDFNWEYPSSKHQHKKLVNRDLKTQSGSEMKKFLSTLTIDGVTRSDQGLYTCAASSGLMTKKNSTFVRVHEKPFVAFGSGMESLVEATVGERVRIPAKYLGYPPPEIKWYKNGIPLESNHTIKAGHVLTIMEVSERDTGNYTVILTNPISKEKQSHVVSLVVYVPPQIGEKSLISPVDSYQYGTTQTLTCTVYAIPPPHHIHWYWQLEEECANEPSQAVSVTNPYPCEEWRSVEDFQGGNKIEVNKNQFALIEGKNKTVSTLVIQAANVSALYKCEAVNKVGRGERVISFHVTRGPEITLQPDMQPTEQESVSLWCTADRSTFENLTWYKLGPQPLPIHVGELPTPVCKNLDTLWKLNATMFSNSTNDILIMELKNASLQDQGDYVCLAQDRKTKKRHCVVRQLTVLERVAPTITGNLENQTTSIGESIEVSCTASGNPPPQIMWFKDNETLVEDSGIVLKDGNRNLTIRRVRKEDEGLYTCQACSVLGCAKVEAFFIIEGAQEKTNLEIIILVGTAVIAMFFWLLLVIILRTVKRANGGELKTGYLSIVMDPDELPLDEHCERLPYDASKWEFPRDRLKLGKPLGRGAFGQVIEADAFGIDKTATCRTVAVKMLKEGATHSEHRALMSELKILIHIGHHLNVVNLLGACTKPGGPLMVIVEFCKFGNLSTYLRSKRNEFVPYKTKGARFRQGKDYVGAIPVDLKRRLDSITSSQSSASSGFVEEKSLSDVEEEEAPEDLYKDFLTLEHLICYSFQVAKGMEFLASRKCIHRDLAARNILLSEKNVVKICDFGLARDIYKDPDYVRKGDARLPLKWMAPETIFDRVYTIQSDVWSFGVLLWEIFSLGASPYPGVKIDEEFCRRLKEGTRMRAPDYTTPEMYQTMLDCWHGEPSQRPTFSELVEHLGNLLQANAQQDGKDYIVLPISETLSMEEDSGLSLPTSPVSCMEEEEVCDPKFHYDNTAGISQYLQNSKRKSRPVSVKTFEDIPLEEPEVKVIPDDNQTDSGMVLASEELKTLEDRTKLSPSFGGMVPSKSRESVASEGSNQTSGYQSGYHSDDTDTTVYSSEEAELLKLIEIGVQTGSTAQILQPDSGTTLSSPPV
Sequence of Dual specificity mitogen-activated protein kinase kinase 1 (Q02750 whole entry): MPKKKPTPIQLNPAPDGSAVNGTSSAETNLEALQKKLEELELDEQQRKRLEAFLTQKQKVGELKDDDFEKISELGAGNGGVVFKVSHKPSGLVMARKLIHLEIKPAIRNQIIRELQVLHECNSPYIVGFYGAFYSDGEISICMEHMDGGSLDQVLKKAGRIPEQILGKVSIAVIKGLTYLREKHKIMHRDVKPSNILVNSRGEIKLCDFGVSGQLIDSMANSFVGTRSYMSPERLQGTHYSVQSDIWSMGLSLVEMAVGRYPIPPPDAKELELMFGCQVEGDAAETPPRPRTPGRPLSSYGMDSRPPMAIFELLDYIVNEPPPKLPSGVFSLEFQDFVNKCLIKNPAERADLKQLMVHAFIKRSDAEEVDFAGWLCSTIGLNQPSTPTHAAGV

Structure (SMILES)	IC50 [1] [µM]	IC50 [2] [µM]	IC50 [3] [µM]	IC50 [4] [µM]	IC50 [5] [µM]	IC50 [6] [µM]	IC50 [7] [µM]	IC50 [8] [µM]	IC50 [9] [µM]	IC50 [10] [µM]	IC50 [11] [µM]	IC50 [12] [µM]
O=C1/C(=C/c2ccccn2)CSC/C1=C\c1ccccn1	16	6.5	> 100	14	30	20	8.5	26	12	3.3	34	3.6
CN1C/C(=C\c2ccccn2)C(=O)[C@@H](Cc2ccccn2)C1	> 100	–	> 100	–	–	> 100	> 100	–	> 100	> 100	15	–
CN1C/C(=C\c2ccccn2)C(=O)/C(=C/c2ccccn2)C1	9.8	1.3	> 100	3.5	9	27	–	2.5	6	1.9	4	2.6
CN1C/C(=C\c2ccccn2)C(=O)[C@H](Cc2ccccn2)C1	> 100	–	> 100	–	–	> 100	> 100	–	> 100	> 100	15	–
